Our source for the EC50, AC50 and CC50 values is ChEMBL document CHEMBL1201862, “PubChem BioAssay data set” (2004).

For orientation: EC50 means the concentration at which the effect is half-maximal. For orientation: AC50 means the concentration giving half of the maximal activity seen. The CC50 is the concentration that lowers cell viability or growth by half.

Calls of active or inactive are those of the source. A value given as a limit tells only on which side of the number the result lay.

Assay [1] concerns Streptococcus. As to the kind of experiment: GAS UMAA2166 growth inhibition – luminescence, BacTiterGlo, counter-screen for streptokinase expression inhibitor project, dose response (AID 1915).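 Also: potency for reduction of bacterial viability or growth.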 The assay is classed as functional, organism-based. (Counterscreens check selectivity or assay interference.)
Assay [2] has as its system Streptococcus sp. 'group A'. As to the kind of experiment: Streptococcus pyogenes SK(-)GAS viability under kanamycin – luminescence, BacTiterGlo, confirmation, counter-screen for streptokinase expression inhibitor project, dose response (AID 1900). In kind it is functional, organism-based.
Assay [3] can be described thus: cells. In kind it is functional, cell-based.
Assay [4] addresses T1, Streptokinase A (Streptococcus pyogenes serotype M1, UniProt P10520).
T1 sequence (P10520 whole entry): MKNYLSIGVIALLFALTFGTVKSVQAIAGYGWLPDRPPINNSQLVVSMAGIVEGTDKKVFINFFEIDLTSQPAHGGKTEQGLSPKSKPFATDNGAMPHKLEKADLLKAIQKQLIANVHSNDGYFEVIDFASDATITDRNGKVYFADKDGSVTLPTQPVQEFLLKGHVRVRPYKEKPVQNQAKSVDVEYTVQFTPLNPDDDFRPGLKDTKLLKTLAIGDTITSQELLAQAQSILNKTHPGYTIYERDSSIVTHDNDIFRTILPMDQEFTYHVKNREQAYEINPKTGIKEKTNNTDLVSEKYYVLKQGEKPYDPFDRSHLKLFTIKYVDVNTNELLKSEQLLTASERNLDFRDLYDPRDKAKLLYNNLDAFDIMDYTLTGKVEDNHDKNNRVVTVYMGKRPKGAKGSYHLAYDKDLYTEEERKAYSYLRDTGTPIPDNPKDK
As to the kind of experiment: viability-normalized secreted streptokinase activity reduction – plasminogen activation absorbance, OD405, dose response (AID 1914).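 Also: secreted streptokinase activity via plasminogen activation per viability signal from cell pellet.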 In kind it is functional, Streptococcus pyogenes M1 GAS.

Assay [5] in a line: cells. The assay is classed as functional, cell-based. This is another data set of the same source.
Assay [6] concerns the target FAD-linked sulfhydryl oxidase ALR (Homo sapiens, UniProt P55789). As to the kind of experiment: ALR-catalysed DTT oxidation blockers – biochemical, H2O2 detection, luminescence, cherry-pick, dose response (AID 493248).
Assay [7] can be described thus: viability of uninfected HEp-2 cells – cell-based, HTS, cytotoxicity control for RSV inhibitor project, dose response (AID 2410). In kind it is functional. The settings on record: human respiratory syncytial virus.
Assay [8] can be described thus: Luminescence Cell-Based Dose Retest to Confirm Inhibitors of Cancer Stem Cells. [Related pubchem assays (depositor defined):AID2717, AID2721]. In kind it is functional. To be noted: Homo sapiens.
Assay [9] can be described thus: NIH-3T3 fibroblast cytotoxicity, dose response, cytotoxicity control, cell-based, fluorescence, Alamar Blue, secondary assay (AID 2327).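 Also: NIH-3T3 mouse fibroblasts cultured with fluconazole at 8 µg/mL.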 The assay is classed as functional.
Assay [10] has as its target Cytochrome P450 2C9 (Homo sapiens, UniProt P11712).
The target in assay [11] is Cytochrome P450 2C19 (Homo sapiens, UniProt P33261). As to the kind of experiment: Cytochrome panel assay with activity outcomes. Panel member name: p450-cyp2c19 Compounds with AC50 equal or less than 10 uM are considered active. The assay is classed as functional. The settings on record: read-out: AC50.
In assay [12] the target is Cytochrome P450 2D6 (Homo sapiens, UniProt P10635).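 Also: CYP2D6 member of a cytochrome P450 panel assay.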
Assay [13] deals with Luciferin 4-monooxygenase (Photinus pyralis, UniProt P08659). As to the kind of experiment: inhibition of purified Photinus pyralis luciferase – biochemical, luminescence, dose response (AID 1891).
The nature of assay [14]: Luminescence Cell-Based Dose Confirmation HTS to Identify Inhibitors of Platelet Dense Granule Release. [Related pubchem assays: 1663 (Primary HTS), 1678 (Summary of Project)]. In kind it is functional.
Assay [15] concerns the target Paired box protein Pax-8 (Homo sapiens, UniProt Q06710). Description: PAX8 transcriptional activity inhibition in RMG-I – RMG-I cells, luciferase, cherry-pick, dose response (AID 687027).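 Also: luciferase reporter driven by Pax8 target thyroperoxidase promoter measured by SteadyGlo luminescence.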 The assay is classed as functional, cell-based.
The target of assay [16] is T2, Zinc finger protein mex-5 (Caenorhabditis elegans, UniProt Q9XUB2).
T2 sequence (Q9XUB2 whole entry): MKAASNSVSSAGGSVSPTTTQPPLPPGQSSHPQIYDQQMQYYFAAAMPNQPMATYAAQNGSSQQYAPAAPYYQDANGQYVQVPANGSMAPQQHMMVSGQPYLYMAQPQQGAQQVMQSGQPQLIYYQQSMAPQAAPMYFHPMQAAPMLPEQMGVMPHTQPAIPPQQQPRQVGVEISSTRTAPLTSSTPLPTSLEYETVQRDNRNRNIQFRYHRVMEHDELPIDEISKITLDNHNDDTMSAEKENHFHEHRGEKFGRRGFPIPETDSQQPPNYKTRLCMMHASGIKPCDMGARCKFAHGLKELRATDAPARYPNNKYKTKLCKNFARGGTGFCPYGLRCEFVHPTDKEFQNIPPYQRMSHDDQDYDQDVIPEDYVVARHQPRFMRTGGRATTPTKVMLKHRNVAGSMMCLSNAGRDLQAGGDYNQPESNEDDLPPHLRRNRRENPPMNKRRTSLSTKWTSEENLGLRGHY
As to the kind of experiment: potency of MEX-5 RNA-binding blockers – biochemical, C. elegans, fluorescence polarization, dose response (AID 1960).

Assay [17] deals with T3, RNA-binding protein pos-1 (Caenorhabditis elegans, UniProt G5EF15).
T3 sequence (G5EF15 whole entry): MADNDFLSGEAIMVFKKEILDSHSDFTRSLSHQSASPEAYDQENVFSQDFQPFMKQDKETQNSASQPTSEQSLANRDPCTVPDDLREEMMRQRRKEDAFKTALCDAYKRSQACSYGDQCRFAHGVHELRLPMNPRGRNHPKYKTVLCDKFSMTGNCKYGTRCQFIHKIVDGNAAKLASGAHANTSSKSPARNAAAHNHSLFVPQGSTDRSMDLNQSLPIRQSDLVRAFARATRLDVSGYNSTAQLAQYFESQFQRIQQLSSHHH
Description: disruptors of C. elegans POS-1 RNA interaction – biochemical, fluorescence polarization, dose response (AID 1964).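 Also: purified POS-1 fused to maltose binding protein made in E. coli; potency of compounds blocking POS-1 binding to fluorescent RNA.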 A general note: In fluorescence polarisation assays a small probe gives low polarisation when free and higher when bound to something large.

FAD-linked sulfhydryl oxidase ALR, sequence (P55789 whole entry): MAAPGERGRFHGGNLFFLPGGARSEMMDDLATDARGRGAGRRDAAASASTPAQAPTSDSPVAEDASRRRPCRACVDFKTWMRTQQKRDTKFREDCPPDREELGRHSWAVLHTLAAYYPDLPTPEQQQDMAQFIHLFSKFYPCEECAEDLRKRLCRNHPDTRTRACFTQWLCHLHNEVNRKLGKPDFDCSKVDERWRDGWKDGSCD
Paired box protein Pax-8, sequence (Q06710 whole entry): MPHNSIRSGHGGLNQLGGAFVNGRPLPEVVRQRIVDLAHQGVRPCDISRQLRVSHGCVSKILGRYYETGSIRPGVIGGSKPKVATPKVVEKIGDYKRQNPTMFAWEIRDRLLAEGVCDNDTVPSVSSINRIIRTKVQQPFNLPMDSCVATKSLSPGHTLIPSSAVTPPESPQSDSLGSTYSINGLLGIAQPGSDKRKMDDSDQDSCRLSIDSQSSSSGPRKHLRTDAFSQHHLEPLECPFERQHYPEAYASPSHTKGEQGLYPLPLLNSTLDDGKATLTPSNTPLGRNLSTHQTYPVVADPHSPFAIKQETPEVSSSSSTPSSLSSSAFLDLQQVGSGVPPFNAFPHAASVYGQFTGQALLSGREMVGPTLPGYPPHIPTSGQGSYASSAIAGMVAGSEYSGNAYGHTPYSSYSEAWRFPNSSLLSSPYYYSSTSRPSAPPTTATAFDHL
Cytochrome P450 2C9, sequence (P11712 whole entry): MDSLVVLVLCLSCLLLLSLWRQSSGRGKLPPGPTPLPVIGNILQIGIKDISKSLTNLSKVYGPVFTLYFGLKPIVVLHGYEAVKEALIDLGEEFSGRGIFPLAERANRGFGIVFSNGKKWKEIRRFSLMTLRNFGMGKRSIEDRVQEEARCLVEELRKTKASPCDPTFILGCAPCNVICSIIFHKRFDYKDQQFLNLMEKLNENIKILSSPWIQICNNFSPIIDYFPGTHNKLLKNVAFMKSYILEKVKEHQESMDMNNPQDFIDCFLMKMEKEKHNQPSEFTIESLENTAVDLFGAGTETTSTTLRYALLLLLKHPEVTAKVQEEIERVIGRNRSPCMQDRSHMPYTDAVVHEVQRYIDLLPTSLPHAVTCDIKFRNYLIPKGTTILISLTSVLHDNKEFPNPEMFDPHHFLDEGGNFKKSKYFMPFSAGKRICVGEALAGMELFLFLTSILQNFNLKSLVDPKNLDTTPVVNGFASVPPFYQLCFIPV
Luciferin 4-monooxygenase, sequence (P08659 whole entry): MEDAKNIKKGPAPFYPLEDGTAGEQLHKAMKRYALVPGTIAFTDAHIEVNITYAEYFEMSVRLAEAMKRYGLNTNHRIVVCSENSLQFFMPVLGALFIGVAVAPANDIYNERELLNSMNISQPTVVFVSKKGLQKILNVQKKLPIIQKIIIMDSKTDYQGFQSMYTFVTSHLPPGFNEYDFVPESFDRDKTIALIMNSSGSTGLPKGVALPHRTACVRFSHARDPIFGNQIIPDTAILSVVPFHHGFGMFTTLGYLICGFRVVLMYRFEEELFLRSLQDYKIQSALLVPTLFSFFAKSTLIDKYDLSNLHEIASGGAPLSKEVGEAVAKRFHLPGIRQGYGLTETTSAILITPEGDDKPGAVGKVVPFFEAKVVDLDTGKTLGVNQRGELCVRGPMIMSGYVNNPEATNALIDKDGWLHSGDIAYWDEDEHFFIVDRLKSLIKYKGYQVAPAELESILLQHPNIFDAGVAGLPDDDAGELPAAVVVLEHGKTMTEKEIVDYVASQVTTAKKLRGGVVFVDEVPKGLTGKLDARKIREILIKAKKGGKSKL
Cytochrome P450 2C19, sequence (P33261 whole entry): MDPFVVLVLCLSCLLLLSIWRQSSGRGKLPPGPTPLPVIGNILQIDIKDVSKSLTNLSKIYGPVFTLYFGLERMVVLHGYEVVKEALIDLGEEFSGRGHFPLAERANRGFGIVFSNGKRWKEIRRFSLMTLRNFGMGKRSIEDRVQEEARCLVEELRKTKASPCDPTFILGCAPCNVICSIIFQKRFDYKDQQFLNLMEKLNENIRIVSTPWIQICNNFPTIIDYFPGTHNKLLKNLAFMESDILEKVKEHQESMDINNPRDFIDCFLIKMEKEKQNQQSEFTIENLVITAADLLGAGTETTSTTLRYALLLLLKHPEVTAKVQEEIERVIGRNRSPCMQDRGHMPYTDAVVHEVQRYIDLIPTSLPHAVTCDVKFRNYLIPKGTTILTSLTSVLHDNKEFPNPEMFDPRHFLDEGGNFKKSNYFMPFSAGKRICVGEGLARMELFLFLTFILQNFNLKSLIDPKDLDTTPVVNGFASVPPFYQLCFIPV
Cytochrome P450 2D6, sequence (P10635 whole entry): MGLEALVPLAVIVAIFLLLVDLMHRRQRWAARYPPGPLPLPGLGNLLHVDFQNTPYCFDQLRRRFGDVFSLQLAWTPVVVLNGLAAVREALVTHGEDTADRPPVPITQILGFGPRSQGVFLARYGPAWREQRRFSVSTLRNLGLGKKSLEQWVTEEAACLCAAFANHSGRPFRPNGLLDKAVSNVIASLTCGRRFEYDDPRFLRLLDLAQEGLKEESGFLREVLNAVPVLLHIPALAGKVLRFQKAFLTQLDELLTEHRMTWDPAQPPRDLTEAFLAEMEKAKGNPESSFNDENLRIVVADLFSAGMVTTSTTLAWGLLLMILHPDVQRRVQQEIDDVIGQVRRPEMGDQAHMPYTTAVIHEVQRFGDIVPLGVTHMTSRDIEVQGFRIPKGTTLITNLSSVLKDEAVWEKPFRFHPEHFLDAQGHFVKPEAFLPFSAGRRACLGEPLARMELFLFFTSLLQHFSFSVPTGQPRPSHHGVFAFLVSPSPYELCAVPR

For `O=C(NCCS(=O)(=O)N1CCN(c2ccccc2F)CC1)C1CC(=O)N(c2ccc(F)cc2)C1` (centres undefined), the EC50 in assay [1] was > 150 µM (not active); in [2], > 150 µM (not active); in assay [3], > 350 µM (not active); in [4] it was > 150 µM (not active); in assay [5], > 350 µM (not active).

Take `CC(C)(C)c1ccc(-c2nc3cc(N)ccc3o2)cc1`: the AC50 in assay [6] is 0.751 µM (active).

Take `C=CCOc1cccc(/C=C2\C(=O)N(Cc3ccc(C)cc3)C(C)=C2C(=O)OC)c1`: in assay [7], the CC50 is 29.7 µM (active). For the same compound, the AC50 in assay [8] was 5.38 µM (active).

Turning to `O=C(c1cccs1)N1N=C(c2ccccc2)CC1c1ccccc1` (centres undefined), the EC50 in assay [1] is 16.2 µM (active); in assay [2], 6.85 µM (active); in assay [4] it was > 150 µM (not active).

As for `Cc1ccc(C)c(OC(=O)c2cncc(Br)c2)c1`, in assay [9], the EC50 is > 160 µM (inactive).

For `CCCCOC(=O)c1ccc(NC(=S)N2CCN(c3ncc4c(=O)c(C(=O)O)cn(CC)c4n3)CC2)cc1`, the EC50 in assay [1] was 2.62 µM (active); in [2], 0.801 µM (active); in assay [4], > 150 µM (not active).

As to `COc1ccc2c(c1)CCc1cnc(N)nc1-2`, the CC50 in assay [7] is 24.4 µM (active).

For the compound `Cn1c(SCC(=O)NC2(C#N)CCCCC2)nnc1-c1cccnc1`, the EC50 in [1], in assay [2] and in [4] was > 150 µM (not active) throughout.

On to `Cc1ccc(/C=C/C(=O)c2nc3ccccc3[nH]2)cc1`, for which the CC50 in assay [7] is 46.1 µM (active). Besides, the figures for the AC50 in [10], in [11] and in assay [12] were 7.94 µM (inconclusive), 0.0158 µM (inconclusive) and 28.2 µM (inconclusive), respectively.

Take `N=C(NOC(=O)c1ccc(Cl)cc1)c1ccccn1`: the CC50 in assay [7] was 16.4 µM (active). Also, the EC50 in [13] was 1.53 µM (active); in assay [14] it was 7.38 µM (active).

Take `CCn1c(=O)c(C(=O)NNC(=O)Cc2ccccc2)c(O)c2ccccc21`: the EC50 in assay [1] is > 150 µM (not active); in assay [2], 9.03 µM (active); in assay [4] it was > 150 µM (not active).

On to `Cc1cc(C)c2nc(SCCc3ccccc3)nc(C)c2c1`, for which the EC50 in [1] was > 150 µM (not active); in assay [2] it was 33.4 µM (active); in assay [4], 12.5 µM (active).

As to `O=C(O)c1cccc(S(=O)(=O)Nc2ccc(N3CCCCC3)cc2)c1`, the AC50 in [6] is 1.75 µM (active).

With `NS(=O)(=O)c1ccc(NNC(=O)c2ccc(Br)o2)c([N+](=O)[O-])c1`, the AC50 in assay [6] was 8.06 µM (active).

As for `Cc1noc(C)c1C(=O)N1CCCC(Nc2ccc(C(C)C)cc2)C1` (centres undefined), the AC50 in assay [6] was 7.67 µM (active).

Take `Cc1ccc(NCc2nnc3n2CCCCC3)c(C)c1`: in [6], the AC50 was 1.35 µM (active).

Turning to `COc1ccc(S(=O)(=O)Nc2ccc3c(c2)C(=O)N([C@H](C)CO)C[C@@H](C)[C@H](CN(C)C(=O)Nc2ccc(C(F)(F)F)cc2)OCCCC[C@H](C)O3)cc1`, the AC50 in assay [15] is 7.32 µM (active).

On to `COc1ccc(C(=O)N/N=C/c2ccc(OC)c(CN3CCN(c4ccc(F)cc4)CC3)c2)cc1`, for which, in [15], the AC50 was 35.8 µM (active).

As to `COc1ccc(-c2cc(C(=O)N/N=C(\C)c3ccco3)c3ccccc3n2)c(OC)c1`, the EC50 is recorded as > 150 µM (not active) in [1]; > 300 µM (not active) in assay [16]; > 150 µM (not active) in assay [2]; > 150 µM (not active) in [4]; > 300 µM (not active) in [17].

In the case of `ClCc1csc(-c2ccc(Cl)cc2)n1`, in assay [6], the AC50 was 4.37 µM (active).
